Laboratory results from patent US10760110B2, “Antibiotic testing and screening system” (priority 2017, dated 2020).
Converted amounts (≈) assume the structure as drawn. Read-outs that look alike come from different tables or passages of the source.

Experiments:
Details in all cases: Klebsiella pneumoniae
[1] = tested on: K. pneumoniae NVT1001 and its ΔompK35/36 and/or ΔramR mutants; assay: Etest MIC, OmpK35/36 loss and AcrAB-TolC overexpression (ΔramR) strains (Table 6); assay type: cell-based, Klebsiella pneumoniae
How it was run: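 MICs were read by Etest strip following the manufacturer's instructions, and values falling between standard two-fold dilutions were rounded up to the next two-fold step. Ceftazidime and cefotaxime were also tested by CLSI broth microdilution and interpreted against CLSI 2017 breakpoints; cephalothin used CLSI 2015 and moxifloxacin EUCAST 2017.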

[2] = tested on: K. pneumoniae NVT1001 ΔramRΔompK35/36 mutant and its revertants; assay: Etest MIC, ΔramRΔompK35/36 mutant and its revertants (Table 7); assay type: cell-based
[3] = tested on: K. pneumoniae NVT1001 strains with carbapenemase plasmids; assay: Etest MIC of β-lactams, OmpK35/36 loss, ΔramR and/or carbapenemase (Table 9); assay type: cell-based, Klebsiella pneumoniae
Method: DNA fragments of the resistance genes along with their flanking regions were amplified from clinical plasmids via PCR with specific primer pairs. The resulting PCR fragments were digested and then cloned into the plasmid pACYC177 or pACYC184. The resulting plasmids were then transformed into K. pneumoniae strain NVT1001 via electroporation. The recombinant bacteria were plated onto LB agar plates containing kanamycin (50 mg/L) or chloramphenicol (50 mg/L), and the presence of the cloned gene was confirmed via PCR and DNA sequencing.
The MICs of antibiotics were determined using the Etest (Biodisk AB, Sweden) according to the manufacturer's instructions. The MICs from the Etest, which fall between standard two-fold dilutions, were rounded up to the next highest two-fold value. The MICs of ceftazidime and cefotaxime against K. pneumoniae NVT1001 harbouring the pACYC177 plasmid with blaOXA-48 were further determined using a broth microdilution test according to the recommendations of the CLSI,^25 and the results were interpreted according to the breakpoints established by the CLSI in 2017.^25 Meanwhile, due to the lack of CLSI breakpoints in 2016 and 2017, the results for cephalothin were interpreted according to the breakpoints established by the CLSI in 2015,^26 and the results for moxifloxacin were interpreted according to the breakpoints established by the EUCAST in 2017.^27

## CCO/N=C(\C(=O)N[C@@H]1C(=O)N2C(C(=O)[O-])=C(Sc3nc(-c4cc[n+](C)cc4)cs3)CS[C@H]12)c1nsc(N)n1 [Ceftaroline]
[1]; WT, NVT1001, read-out: MIC
  MIC: 0.25 µg/mL (≈ 0.413 µM)
[1]; Δ35, ΔompK35 mutant
  MIC: 0.25 µg/mL (≈ 0.413 µM)
[1]; Δ35/36, ΔompK35/36 mutant
  MIC: 1 µg/mL (≈ 1.65 µM)
[1]; Δ36, ΔompK36 mutant
  MIC: 0.5 µg/mL (≈ 0.827 µM)
[1]; ΔramR mutant
  MIC: 1 µg/mL (≈ 1.65 µM)
[1]; ΔramRΔ35, ΔramRΔompK35 mutant
  MIC: 1 µg/mL (≈ 1.65 µM)
[1]; ΔramRΔ35/36, ΔramRΔompK35/36 mutant
  MIC: 4 µg/mL (≈ 6.61 µM)
[1]; ΔramRΔ36, ΔramRΔompK36 mutant
  MIC: 4 µg/mL (≈ 6.61 µM)
[2]; ΔramRΔompK35/36::ompK35/36 revertant
  MIC: 1 µg/mL
[2]; ΔramRΔompK35/36::ompK35 revertant
  MIC: 4 µg/mL
[2]; ΔramRΔompK35/36::ompK36 revertant
  MIC: 1 µg/mL
[2]; ΔramRΔompK35/36::ramR revertant
  MIC: 1 µg/mL
[2]; ΔramRΔompK35/36::ramR::ompK35/36 revertant
  MIC: 0.25 µg/mL
[2]; ΔramRΔompK35/36::ramR::ompK35 revertant
  MIC: 0.5 µg/mL
[2]; ΔramRΔompK35/36::ramR::ompK36 revertant
  MIC: 0.5 µg/mL
[2]; ΔramRΔompK35/36 mutant
  MIC: 4 µg/mL
[3]; IMP-8 on pACYC177, WT (NVT1001), read-out: MIC
  MIC: 64 µg/mL
[3]; IMP-8 on pACYC177, Δ35 (ΔompK35 mutant)
  MIC: 64 µg/mL
[3]; IMP-8 on pACYC177, Δ35/36 (ΔompK35/36 mutant)
  MIC: > 256 µg/mL
[3]; IMP-8 on pACYC177, Δ36 (ΔompK36 mutant)
  MIC: 64 µg/mL
[3]; IMP-8 on pACYC177, ΔramR mutant
  MIC: 32 µg/mL
[3]; IMP-8 on pACYC177, ΔramRΔ35 (ΔramRΔompK35 mutant)
  MIC: 64 µg/mL
[3]; IMP-8 on pACYC177, ΔramRΔ35/36 (ΔramRΔompK35/36 mutant)
  MIC: 128 µg/mL
[3]; IMP-8 on pACYC177, ΔramRΔ36 (ΔramRΔompK36 mutant)
  MIC: 64 µg/mL
[3]; KPC-2 on pACYC177, WT (NVT1001), read-out: MIC
  MIC: 256 µg/mL
[3]; KPC-2 on pACYC177, Δ35 (ΔompK35 mutant)
  MIC: > 256 µg/mL
[3]; KPC-2 on pACYC177, Δ35/36 (ΔompK35/36 mutant)
  MIC: > 256 µg/mL
[3]; KPC-2 on pACYC177, Δ36 (ΔompK36 mutant)
  MIC: > 256 µg/mL
[3]; KPC-2 on pACYC177, ΔramR mutant
  MIC: > 256 µg/mL
[3]; KPC-2 on pACYC177, ΔramRΔ35 (ΔramRΔompK35 mutant)
  MIC: > 256 µg/mL
[3]; KPC-2 on pACYC177, ΔramRΔ35/36 (ΔramRΔompK35/36 mutant)
  MIC: > 256 µg/mL
[3]; KPC-2 on pACYC177, ΔramRΔ36 (ΔramRΔompK36 mutant)
  MIC: > 256 µg/mL
[3]; KPC-3 on pACYC177, WT (NVT1001), read-out: MIC
  MIC: 256 µg/mL
[3]; KPC-3 on pACYC177, Δ35 (ΔompK35 mutant)
  MIC: 256 µg/mL
[3]; KPC-3 on pACYC177, Δ35/36 (ΔompK35/36 mutant)
  MIC: > 256 µg/mL
[3]; KPC-3 on pACYC177, Δ36 (ΔompK36 mutant)
  MIC: > 256 µg/mL
[3]; KPC-3 on pACYC177, ΔramR mutant
  MIC: 256 µg/mL
[3]; KPC-3 on pACYC177, ΔramRΔ35 (ΔramRΔompK35 mutant)
  MIC: 256 µg/mL
[3]; KPC-3 on pACYC177, ΔramRΔ35/36 (ΔramRΔompK35/36 mutant)
  MIC: > 256 µg/mL
[3]; KPC-3 on pACYC177, ΔramRΔ36 (ΔramRΔompK36 mutant)
  MIC: > 256 µg/mL
[3]; NDM-1 on pACYC177, WT (NVT1001), read-out: MIC
  MIC: > 256 µg/mL
[3]; NDM-1 on pACYC177, Δ35 (ΔompK35 mutant)
  MIC: > 256 µg/mL
[3]; NDM-1 on pACYC177, Δ35/36 (ΔompK35/36 mutant)
  MIC: > 256 µg/mL
[3]; NDM-1 on pACYC177, Δ36 (ΔompK36 mutant)
  MIC: > 256 µg/mL
[3]; NDM-1 on pACYC177, ΔramR mutant
  MIC: > 256 µg/mL
[3]; NDM-1 on pACYC177, ΔramRΔ35 (ΔramRΔompK35 mutant)
  MIC: > 256 µg/mL
[3]; NDM-1 on pACYC177, ΔramRΔ35/36 (ΔramRΔompK35/36 mutant)
  MIC: > 256 µg/mL
[3]; NDM-1 on pACYC177, ΔramRΔ36 (ΔramRΔompK36 mutant)
  MIC: > 256 µg/mL
[3]; OXA-48 on pACYC177, WT (NVT1001), read-out: MIC
  MIC: 8 µg/mL
[3]; OXA-48 on pACYC177, Δ35 (ΔompK35 mutant)
  MIC: 8 µg/mL
[3]; OXA-48 on pACYC177, Δ35/36 (ΔompK35/36 mutant)
  MIC: 32 µg/mL
[3]; OXA-48 on pACYC177, Δ36 (ΔompK36 mutant)
  MIC: 8 µg/mL
[3]; OXA-48 on pACYC177, ΔramR mutant
  MIC: 8 µg/mL
[3]; OXA-48 on pACYC177, ΔramRΔ35 (ΔramRΔompK35 mutant)
  MIC: 8 µg/mL
[3]; OXA-48 on pACYC177, ΔramRΔ35/36 (ΔramRΔompK35/36 mutant)
  MIC: 16 µg/mL
[3]; OXA-48 on pACYC177, ΔramRΔ36 (ΔramRΔompK36 mutant)
  MIC: 8 µg/mL
[3]; VIM-1 on pACYC177, WT (NVT1001), read-out: MIC
  MIC: 256 µg/mL
[3]; VIM-1 on pACYC177, Δ35 (ΔompK35 mutant)
  MIC: > 256 µg/mL
[3]; VIM-1 on pACYC177, Δ35/36 (ΔompK35/36 mutant)
  MIC: > 256 µg/mL
[3]; VIM-1 on pACYC177, Δ36 (ΔompK36 mutant)
  MIC: > 256 µg/mL
[3]; VIM-1 on pACYC177, ΔramR mutant
  MIC: > 256 µg/mL
[3]; VIM-1 on pACYC177, ΔramRΔ35 (ΔramRΔompK35 mutant)
  MIC: > 256 µg/mL
[3]; VIM-1 on pACYC177, ΔramRΔ35/36 (ΔramRΔompK35/36 mutant)
  MIC: > 256 µg/mL
[3]; VIM-1 on pACYC177, ΔramRΔ36 (ΔramRΔompK36 mutant)
  MIC: > 256 µg/mL
[3]; no supplemental plasmid, WT (NVT1001), read-out: MIC
  MIC: 0.25 µg/mL
[3]; no supplemental plasmid, Δ35 (ΔompK35 mutant)
  MIC: 0.25 µg/mL
[3]; no supplemental plasmid, Δ35/36 (ΔompK35/36 mutant)
  MIC: 1 µg/mL
[3]; no supplemental plasmid, Δ36 (ΔompK36 mutant)
  MIC: 0.5 µg/mL
[3]; no supplemental plasmid, ΔramR mutant
  MIC: 1 µg/mL
[3]; no supplemental plasmid, ΔramRΔ35 (ΔramRΔompK35 mutant)
  MIC: 1 µg/mL
[3]; no supplemental plasmid, ΔramRΔ35/36 (ΔramRΔompK35/36 mutant)
  MIC: 4 µg/mL
[3]; no supplemental plasmid, ΔramRΔ36 (ΔramRΔompK36 mutant)
  MIC: 4 µg/mL
